# Measurements reported in ChEMBL document CHEMBL1201862, “PubChem BioAssay data set” (2004).
# Active and inactive are the calls of the source. For most assays here, no stated cut-off is given here; in the data, actives have a measured EC50 and inactives only a lower limit.
# Key:
# [1] = microbe, parasite or virus in culture; type: functional; settings: Mycobacterium tuberculosis
# [2] = Luminescence Cell-Based Dose Retest to Confirm Inhibitors of Cancer Stem Cells. [Related pubchem assays (depositor defined):AID2717, AID2721]; type: functional; settings: Homo sapiens
# [3] = Luminescence Cell-Based Dose Confirmation HTS to Identify Inhibitors of Platelet Dense Granule Release. [Related pubchem assays: 1663 (Primary HTS), 1678 (Summary of Project)]; type: functional
# [4] = molecular target: Luciferin 4-monooxygenase (Photinus pyralis, UniProt P08659); assay: firefly luciferase enzyme inhibitors, dose response, biochemical, luminescence (AID 1891)
# [5] = molecular target: T1, Protein RecA (Mycobacterium tuberculosis, UniProt P9WHJ3); assay: Fluorescence Cell-Free Homogeneous Dose Retest to Identify Inhibitors of RecA-Intein Splicing Activity. [Related pubchem assays (depositor defined):AID2097, AID2223, AID489010, AID492950]; type: functional
# T1 sequence (P9WHJ3 whole entry): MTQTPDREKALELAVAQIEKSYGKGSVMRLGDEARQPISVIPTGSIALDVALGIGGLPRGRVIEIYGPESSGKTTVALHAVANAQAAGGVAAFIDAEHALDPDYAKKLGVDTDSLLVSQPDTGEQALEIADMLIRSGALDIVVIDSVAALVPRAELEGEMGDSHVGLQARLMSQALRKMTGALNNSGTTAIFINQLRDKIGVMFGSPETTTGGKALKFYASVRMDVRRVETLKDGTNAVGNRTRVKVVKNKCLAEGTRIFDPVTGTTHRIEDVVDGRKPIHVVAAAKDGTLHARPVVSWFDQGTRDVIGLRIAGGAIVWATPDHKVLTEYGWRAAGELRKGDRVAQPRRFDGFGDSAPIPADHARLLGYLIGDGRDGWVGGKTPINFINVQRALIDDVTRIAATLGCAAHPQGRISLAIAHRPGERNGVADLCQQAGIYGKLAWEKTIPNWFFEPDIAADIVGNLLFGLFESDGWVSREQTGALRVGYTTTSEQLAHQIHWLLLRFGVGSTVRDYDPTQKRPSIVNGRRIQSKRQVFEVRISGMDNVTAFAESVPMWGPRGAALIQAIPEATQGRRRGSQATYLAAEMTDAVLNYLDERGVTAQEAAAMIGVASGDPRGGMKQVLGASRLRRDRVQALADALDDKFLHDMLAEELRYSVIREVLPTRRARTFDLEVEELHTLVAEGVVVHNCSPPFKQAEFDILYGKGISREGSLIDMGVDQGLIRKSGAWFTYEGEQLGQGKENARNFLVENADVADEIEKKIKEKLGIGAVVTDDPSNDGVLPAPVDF
# [6] = molecular target: T2, Replicative DNA helicase DnaB (Mycobacterium tuberculosis, UniProt P9WMR3); assay: DnaB intein splicing inhibitors, dose response, biochemical, cell-free fluorescence (AID 449749); type: functional
# T2 sequence (P9WMR3 whole entry): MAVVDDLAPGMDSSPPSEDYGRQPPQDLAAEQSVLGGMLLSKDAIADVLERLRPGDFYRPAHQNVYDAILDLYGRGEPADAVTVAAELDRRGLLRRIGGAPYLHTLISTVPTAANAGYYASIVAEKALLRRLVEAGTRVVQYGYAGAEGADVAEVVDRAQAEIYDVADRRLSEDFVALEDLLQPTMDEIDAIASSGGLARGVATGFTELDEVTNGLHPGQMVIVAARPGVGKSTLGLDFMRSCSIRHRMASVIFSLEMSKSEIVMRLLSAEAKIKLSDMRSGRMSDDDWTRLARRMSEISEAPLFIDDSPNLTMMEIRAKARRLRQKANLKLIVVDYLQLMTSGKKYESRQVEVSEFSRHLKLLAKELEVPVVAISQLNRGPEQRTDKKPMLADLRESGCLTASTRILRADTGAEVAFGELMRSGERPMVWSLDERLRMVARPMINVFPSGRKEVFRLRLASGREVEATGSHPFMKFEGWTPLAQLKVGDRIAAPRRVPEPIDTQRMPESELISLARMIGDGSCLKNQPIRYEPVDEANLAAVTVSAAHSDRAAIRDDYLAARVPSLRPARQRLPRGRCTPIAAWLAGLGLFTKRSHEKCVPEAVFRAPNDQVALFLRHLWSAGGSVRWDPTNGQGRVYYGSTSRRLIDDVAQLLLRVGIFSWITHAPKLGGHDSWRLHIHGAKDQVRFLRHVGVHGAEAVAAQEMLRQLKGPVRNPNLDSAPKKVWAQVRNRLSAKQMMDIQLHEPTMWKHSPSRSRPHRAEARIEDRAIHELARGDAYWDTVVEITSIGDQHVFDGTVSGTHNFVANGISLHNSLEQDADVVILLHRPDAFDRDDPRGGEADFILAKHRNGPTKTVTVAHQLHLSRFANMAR
# [7] = cells; type: functional
# [8] = P. falciparum Dd2 growth inhibitors, dose response, SYBR Green, cherry-picked samples (AID 1159567); type: functional, cell-based
# [9] = cytotoxicity toward NIH3T3 fibroblasts, dose response, counter-screen, cell-based, ATP luminescence, mouse fibroblasts (AID 2010); type: functional;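 further: cells exposed to compound for about 90 hours before reading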
# [10] = inhibitors of intracellular T. cruzi replication, confirmation, NIH3T3 host cells, beta-gal luminescence (AID 2044); type: functional, cell-based;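 further: intracellular parasites grown in NIH/3T3 mouse fibroblasts as host cells; luminescent beta-galactosidase reporter signal from transgenic T. cruzi replicating inside host cells; inhibitors lower the luminescence signal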
# [11] = test system: H4; assay: Luminescence Cell-Based Dose Response HTS to Identify Activators of 5'UTR Stem-Loop Driven Prion Protein mRNA Translation in H4 Neuroglioblastoma Cells. [Related pubchem assays: 1829 (Project Summary), 1814 (Primary HTS)]; type: functional; settings: Homo sapiens
# [12] = Luminescence Cell-Based Dose Confirmation HTS to Identify Activators of 5'UTR Stem-Loop Driven Alpha-Synuclein mRNA Translation in H4 Neuroglioblastoma Cells. [Related pubchem assays: 1829 (Project Summary), 1814 (Primary HTS)]; type: functional
# [13] = Luminescence Cell-Based Dose Response HTS to Identify Activators of Luciferase Translation or Activity in H4 […] Cells. [Related pubchem assays: 1829 (Project Summary), 1814 (Primary HTS)]; type: functional
# [14] = test system: Streptococcus sp. 'group A'; assay: growth inhibition of control SK(-) GAS strain, dose response, counter-screen for streptokinase expression inhibitor project, luminescence, kanamycin, BacTiterGlo, confirmation (AID 1900); type: functional, organism-based
# [15] = test system: Streptococcus; assay: Group A Streptococcus viability loss, dose response, counter-screen for streptokinase expression inhibitor project, luminescence, BacTiterGlo (AID 1915); type: functional, organism-based;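 further: potency for reduction of bacterial viability or growth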
# [16] = molecular target: T3, Streptokinase A (Streptococcus pyogenes serotype M1, UniProt P10520); assay: S. pyogenes streptokinase expression inhibitors, potency, dose response, plasminogen activation absorbance, OD405 (AID 1914); type: functional, Streptococcus pyogenes M1 GAS;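 further: secreted streptokinase activity via plasminogen activation per viability signal from cell pellet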
# T3 sequence (P10520 whole entry): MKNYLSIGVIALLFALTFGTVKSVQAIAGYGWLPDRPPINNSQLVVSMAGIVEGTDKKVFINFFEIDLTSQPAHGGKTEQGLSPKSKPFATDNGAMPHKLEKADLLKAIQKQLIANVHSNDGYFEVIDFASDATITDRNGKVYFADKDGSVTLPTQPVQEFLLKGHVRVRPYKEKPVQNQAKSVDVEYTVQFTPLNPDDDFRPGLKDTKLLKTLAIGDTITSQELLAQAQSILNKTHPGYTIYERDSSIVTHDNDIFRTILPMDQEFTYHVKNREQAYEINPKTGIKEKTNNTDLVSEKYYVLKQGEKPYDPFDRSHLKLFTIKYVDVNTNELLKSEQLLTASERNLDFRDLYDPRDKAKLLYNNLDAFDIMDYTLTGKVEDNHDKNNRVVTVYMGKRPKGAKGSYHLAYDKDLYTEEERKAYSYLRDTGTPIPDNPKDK
# [17] = inhibitors of SNCA 5'UTR-driven reporter translation, confirmation, H4 neuroglioma cells, luminescence (AID 1988); type: functional, cell-based
# [18] = inhibitors of firefly luciferase expression or activity, dose response, H4 neuroglioma cells, luminescence (AID 1990); type: functional, cell-based
# [19] = Luminescence Cell-Based Dose Response HTS to Identify Inhibitors of 5'UTR Stem-Loop Driven Prion Protein mRNA Translation in H4 Neuroglioblastoma Cells. [Related pubchem assays: 1827 (Project Summary), 1813 (Primary HTS)]; type: functional
# [20] = molecular target: T4, Cytochrome P450 1A2 (Homo sapiens, UniProt P05177);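 further: PubChem cytochrome P450 panel assay, CYP1A2 panel member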
# T4 sequence (P05177 whole entry): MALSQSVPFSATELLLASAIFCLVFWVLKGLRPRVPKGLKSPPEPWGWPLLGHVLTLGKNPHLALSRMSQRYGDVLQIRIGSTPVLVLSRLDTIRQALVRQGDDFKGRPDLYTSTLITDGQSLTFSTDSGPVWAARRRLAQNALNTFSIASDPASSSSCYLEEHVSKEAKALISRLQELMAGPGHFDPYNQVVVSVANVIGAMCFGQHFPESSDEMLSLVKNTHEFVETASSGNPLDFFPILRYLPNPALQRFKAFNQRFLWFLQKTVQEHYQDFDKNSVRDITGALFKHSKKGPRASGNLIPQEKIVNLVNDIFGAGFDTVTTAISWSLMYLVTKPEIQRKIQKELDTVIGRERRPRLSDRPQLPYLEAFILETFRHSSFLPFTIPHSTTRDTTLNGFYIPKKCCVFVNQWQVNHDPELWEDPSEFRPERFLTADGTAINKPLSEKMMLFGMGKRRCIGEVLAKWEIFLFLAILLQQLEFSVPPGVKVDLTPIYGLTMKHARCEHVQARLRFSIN
# [21] = HEp-2 cell cytotoxicity, dose response, cytotoxicity control for RSV inhibitor project, HTS (AID 2410); type: functional; settings: human respiratory syncytial virus
# Luciferin 4-monooxygenase, sequence (P08659 whole entry): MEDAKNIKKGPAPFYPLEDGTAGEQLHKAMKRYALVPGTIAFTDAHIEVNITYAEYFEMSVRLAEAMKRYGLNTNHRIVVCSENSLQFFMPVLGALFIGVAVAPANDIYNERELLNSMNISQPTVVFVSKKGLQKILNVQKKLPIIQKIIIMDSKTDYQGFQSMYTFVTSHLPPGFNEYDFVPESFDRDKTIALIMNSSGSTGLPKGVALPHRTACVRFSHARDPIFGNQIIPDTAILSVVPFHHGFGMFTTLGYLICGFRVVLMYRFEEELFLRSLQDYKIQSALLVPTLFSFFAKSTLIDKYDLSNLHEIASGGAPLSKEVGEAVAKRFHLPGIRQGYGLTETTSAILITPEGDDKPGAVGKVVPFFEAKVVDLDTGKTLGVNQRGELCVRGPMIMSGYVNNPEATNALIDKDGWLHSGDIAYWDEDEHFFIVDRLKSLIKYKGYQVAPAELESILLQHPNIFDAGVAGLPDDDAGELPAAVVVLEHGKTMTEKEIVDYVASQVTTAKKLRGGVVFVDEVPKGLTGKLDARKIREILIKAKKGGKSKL
compound,measurement,setting,value
CCOc1ccc(N2C=Nc3ccc(OCC)cc3C2)cc1,CC50,[1],> 40 µM (active)
Cc1cc(C)nc(NC(=O)c2ccc(COc3ccccc3Cl)cc2)c1,AC50,[2],0.245 µM (active)
COc1ccc(CN2CCCC(C(=O)c3ccc(SC)cc3)C2)cc1Cn1cccn1 (stereo unspecified),CC50,[1],> 40 µM (active)
COC(=O)c1cc(NC2c3ccccc3C(=O)N2c2cccnc2)cc(C(=O)OC)c1 (stereo unspecified),EC50,[3],> 112 µM (not active)
same,EC50,[4],> 112 µM (not active)
Cc1nccn1-c1c([N+](=O)[O-])c(=O)n(C)c2ccccc12,EC50,[5],12.2 µM (active)
same,AC50,[6],29 µM (active)
NC(=O)CC(NC(=O)Cc1ccc(Br)cc1)c1ccc(N2CCN(c3ccccc3)CC2)c([N+](=O)[O-])c1 (stereo unspecified),AC50,[2],14.4 µM (active)
COc1ccc(OC(=O)CCc2c[nH]c3ccccc23)cc1,IC50,[7],0.48 µM (active)
COc1ccc2c3c([nH]c2c1)[C@@H](CO)N(Cc1cccc(Cl)c1)CC31CCN(C(C)=O)CC1,AC50,[8],3.22 µM (active)
CCCNC(=O)N1[C@@H](C#N)[C@H](c2ccccc2-c2ccccc2F)[C@@H]1CO,AC50,[8],18.8 µM (active)
CCOc1cc(CNc2ccc(Br)cc2)cc(Br)c1OCC(=O)NC(C)(C)C,EC50,[9],37.3 µM (active)
same,AC50,[2],31.6 µM (active)
same,EC50,[10],1.91 µM (active)
CCC(=O)N1c2ccc(S(=O)(=O)CCC(=O)N3CCN(c4ccccc4F)CC3)cc2CC1C (stereo unspecified),EC50,[3],> 112 µM (not active)
same,EC50,[4],> 112 µM (not active)
Cc1ccc(C(=O)NCCn2cc(SCC(=O)Nc3nnc(C)s3)c3ccccc32)cc1,EC50,[3],> 112 µM (not active)
same,EC50,[11],> 120 µM (not active)
same,EC50,[12],7.83 µM (active)
same,EC50,[4],> 112 µM (not active)
same,EC50,[13],23.2 µM (active)
Fc1ccc(-[n+]2nc(Nc3ccccc3)sc2-c2c3ccccc3cc3ccccc23)cc1,EC50,[5],10.6 µM (active)
same,EC50,[14],6.85 µM (active)
same,EC50,[15],9.23 µM (active)
same,AC50,[6],> 380 µM (inactive)
same,EC50,[16],3.22 µM (active)
CC(C)(CO)NCC(O)COc1ccc2c(c1)CCC2 (stereo unspecified),EC50,[3],> 112 µM (not active)
same,EC50,[4],> 112 µM (not active)
Cc1onc(-c2ccccc2)c1C(=O)N=C(N)c1ccc(Cl)cc1,EC50,[3],28.4 µM (active)
same,EC50,[4],> 112 µM (not active)
CN1C(C(=O)NCc2ccc(OC(F)(F)F)cc2)CC2Cn3c(nc4cc(Cl)c(Cl)cc43)C21 (stereo unspecified),CC50,[1],34.1 µM (active)
C=CCn1c(SCc2c(C)noc2C)nc2sc3c(c2c1=O)CCCCC3,EC50,[17],15.1 µM (active)
same,AC50,[2],0.856 µM (active)
same,EC50,[18],14.7 µM (active)
same,EC50,[19],14.8 µM (active)
Cc1sc2ncnc(N3CCC(C(=O)NCC(=O)Nc4ccc(F)c(F)c4)CC3)c2c1C,EC50,[14],4.44 µM (active)
same,EC50,[15],8.01 µM (active)
same,CC50,[1],30.4 µM (active)
Cc1cc(C)n2nc(SCc3cc(=O)oc4cc(C)c(C)cc34)nc2n1,EC50,[3],> 112 µM (not active)
same,EC50,[4],> 112 µM (not active)
O=S(=O)(CCc1ccccc1)/N=C/c1cccs1,EC50,[3],> 112 µM (not active)
same,EC50,[4],> 112 µM (not active)
COc1ccc(-c2c(C#N)c(SCC(=O)c3cc4ccccc4oc3=O)nc(C)c2C(=O)Nc2ccccc2)cc1,AC50,[2],0.738 µM (active)
same,CC50,[1],5.32 µM (active)
COC(=O)C1CSC(C(=O)OC)N1C(=O)Nc1ccccc1 (stereo unspecified),AC50,[20],25.1 µM (inconclusive)
same,EC50,[3],> 112 µM (not active)
same,EC50,[4],> 112 µM (not active)
CC(=O)Nc1cc(OC(=O)c2ccco2)cc(OC(=O)c2ccco2)c1,EC50,[5],1.03 µM (active)
same,AC50,[6],1.77 µM (active)
CN1CCN(C(=O)C[C@H]2C[C@@H]3c4cc(NC(=O)Nc5ccc(C(F)(F)F)cc5)ccc4O[C@@H]3[C@@H](CO)O2)CC1,AC50,[8],5.16 µM (active)
CCOc1ccc2nc(NC(=O)c3ccc(C)o3)sc2c1,EC50,[3],5.87 µM (active)
same,EC50,[4],0.562 µM (active)
S=C(Nc1ccccc1Cl)N1CCCC(c2ccccc2)=N1,AC50,[2],4.35 µM (active)
same,CC50,[21],25.1 µM (active)
COc1ccccc1-c1sc2ccccc2c1C#CC1(O)CCCCC1,AC50,[2],5.11 µM (active)
Cc1n[nH]c(O)c1[C@@H](c1ccccc1[N+](=O)[O-])C(C#N)C#N,EC50,[5],2.63 µM (active)
